Experimental data taken from patent US20090297638A1.

Assays:
TNF-RE tkLuc = TNF-RE tkLuc reporter, effect of antiestrogens (ER subtype not given); type: cell-based, human; settings: for effect on the repression induced by E2: TNF-RE tkLuc, with E2; for activation of TNF-RE tkLuc: antiestrogens, in contrast to E2
From the text: Plasmid Construction. […] ERβmutants were created with QuikChange site-directed mutagenesis kits (Stratagene), by using oligonucleotides containing the mutation. The mutants were sequenced with Sequenase kits (Amersham Pharmacia) to verify the presence of the mutation.

[1] = five years of therapy; cited from earlier work
[2] = women at high risk for breast cancer; cited from earlier work
human ERβ = target: T1, human ERβ (Homo sapiens, UniProt Q92731); experiment: ERE-tk-Luc luciferase assay in U2OS osteosarcoma cells, ERβ; type: cell-based; settings: co-administration with the extract (Herb 16)
T1 construct: expressed in transfected cells; host or cells: U2OS (human osteosarcoma)
Description: Preparation of Anemarrhena Asphodeloides Bge. from the Liliaceae Family: Samples of Anemarrhena asphodeloides Bge. from the Liliaceae Family were ground to fine powder using a commercial electric herb grinder; 5 grams were weighed and extracted in a) 50 ml of 100% EtOH or b) 50 ml of distilled H2O was simmered at 75° Celsius for 45 minutes. The extracts (a and b) were than decanted and only the soluble material was used.

T1 sequence (Q92731 whole entry): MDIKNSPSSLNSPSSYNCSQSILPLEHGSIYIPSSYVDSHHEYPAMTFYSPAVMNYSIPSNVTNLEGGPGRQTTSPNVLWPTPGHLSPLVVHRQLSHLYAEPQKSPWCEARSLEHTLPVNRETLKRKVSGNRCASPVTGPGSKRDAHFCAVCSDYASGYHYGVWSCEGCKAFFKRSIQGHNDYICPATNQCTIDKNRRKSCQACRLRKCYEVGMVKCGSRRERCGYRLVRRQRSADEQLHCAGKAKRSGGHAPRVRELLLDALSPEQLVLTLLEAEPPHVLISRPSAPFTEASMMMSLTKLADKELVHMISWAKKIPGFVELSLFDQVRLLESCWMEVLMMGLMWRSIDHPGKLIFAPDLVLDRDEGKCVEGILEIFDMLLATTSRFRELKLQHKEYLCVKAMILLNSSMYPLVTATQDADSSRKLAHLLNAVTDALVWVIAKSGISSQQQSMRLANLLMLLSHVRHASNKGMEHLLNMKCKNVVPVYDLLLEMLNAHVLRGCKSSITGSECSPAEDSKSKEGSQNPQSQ

Row | SMILES | effect on the repression induced by E2 (TNF-RE tkLuc) | activation of TNF-RE tkLuc (TNF-RE tkLuc) [fold] | reduction of mortality from breast cancer [1] [%] | reduction of the risk of recurrences [1] [%] | reduction of the risk of primary invasive breast cancer [2] [%] | effect on extract-stimulated ERE-tk-Luc expression (human ERβ; FIG. 5) | effect on extract-stimulated ERE-tk-Luc expression (human ERβ; FIG. 5, listed as Raloxifene) | effect on extract-stimulated ERE-tk-Luc expression (human ERβ; FIG. 5, listed as ICI)
1 | CC/C(=C(\c1ccccc1)c1ccc(OCCN(C)C)cc1)c1ccccc1 [tamoxifen] | abolished the repression induced by E2 | 2 | 22 | 42 | 49 | – | – | –
2 | O=C(c1ccc(OCCN2CCCCC2)cc1)c1c(-c2ccc(O)cc2)sc2cc(O)ccc12 [raloxifene] | abolished the repression induced by E2 | 2 | – | – | – | counteracted | attenuated | –
3 | C[C@]12CC[C@@H]3c4ccc(O)cc4C[C@@H](CCCCCCCCC[S+]([O-])CCCC(F)(F)C(F)(F)F)[C@H]3[C@@H]1CC[C@@H]2O (stereo partly shown) [ICI 182780] | abolished the repression induced by E2 | 2 | – | – | – | counteracted | – | attenuated
